Key:
Assay type in all cases: cell-based, human
CTL clone 2 [1] = test: T cell recognition (GM-CSF release) of peptide-pulsed EBV B cells by CTL clone 2; settings: peptide pulsed onto 1510EBV or 586EBV B cells
Excerpt: (§1) FIGS. 7A–7C. An alternative open reading frame of the NY-ESO-1 gene and antigenic peptides recognized by CTL. FIG. 7A. Identification of antigenic peptides from the ORF2. Thirty peptides were synthesized based on all potential ORFs and screened. Representative data are shown here. Seven peptides derived from ORF2 (see FIG. 3A) were pulsed on HLA-A31 positive 1510EBV B cells and tested for T cell recognition based on GM-CSF release ([…], SEQ ID NO: 123; […], SEQ ID NO: 124; […], SEQ ID NO: 125; […], SEQ ID NO: 46; […], SEQ ID NO: 47; […], SEQ ID NO: 126; and […], SEQ ID NO: 127). 1510 EBV alone was used as a negative control. FIG. 7B. 1510EBV B cells were labeled with chromium for 2 h. The ESORF2-10-18 peptide was then pulsed on the chromium-labeled […] (solid square) and HLA-A31-negative 1102EBV (open circle) at different concentrations. 1510EBV pulsed with ESO10-53, which was recognized by CTL clone 5, was used for the specificity control (solid triangle). After peptide incubation and three washes, cytolysis of target cells by CTL-clone 2 was determined in a 4-h chromium release assay at an E:T ratio of 20:1. FIG. 7C. Several tumor lines and fresh breast tumors were tested for recognition by CTL clone 2 to determine whether the ORF2 is translated in different tumors. 1510EBV B cells pulsed with […] (SEQ ID NO: 25) (ESO10-53), […] (SEQ ID NO: 47) (ORF2-10-18), or alone were included to evaluate the reactivity and specificity of CTL clone 2 and 5. Expression of HLA-A31 on the tumor cells is indicated.
(§2) DNA transfection and GM-CSF assay were done as previously described (Wang, R. F., P. F. Robbins, Y. Kawakami, X. Q. Kang, and S. A. Rosenberg, 1995, J. Exp. Med. 181:799–804). Briefly, […] of DNA carrying a different fragment and 50 ng of the HLA-A31 DNA were mixed with 2 μl of lipofectamine in 100 μl of serum-free DMEM for 15–45 min. The DNA/lipofectamine mixture was then added to the COS-7 (5×10^4) cells and incubated overnight. The following day, cells were washed twice with DMEM medium. TIL586, CTL clone 5 or CTL clone 10 were added at a concentration of 5×10^4 cells/well in AIM-V medium containing 120 IU/ml of IL-2. After 18–24 h incubation, 100 μl of supernatant was collected and GM-CSF was measured in a standard ELISA assay (R+D Systems, Minneapolis, Minn.). […]
CTL clone 5 and TIL1244 were used for the specificity controls. […] To test the hypothesis that CTL may recognize a peptide from a gene product translated from an alternative open reading frame of the same gene, synthetic peptides were made with HLA-A31 Binding motif on the basis of amino acid sequence predicted from the second open reading frames (ORF2) (FIG. 3A). […]

CTL clone 2 [2] = test: Chromium release cytolysis of peptide-pulsed target cells by CTL clone 2; settings: 4-h chromium release, E:T ratio of 20:1 (FIG. 7B)
Excerpt: as §1, with “Expression of HLA-A31 on the tumor cells is indicated.” left out
Cytolytic assay was done as previously described (Kawakami, Y et al., 1994, Proc. Natl. Acad. Sci. USA 91:6458–62). […] The cells were washed again, counted, and then mixed with TIL586 or CTL clone 5 at the indicated ratio of effector: targets (E:T). Chromium release was measured after 4 h incubation. […] Percentage of specific lysis was determined from the equation (A−B)/(C−B)×100 where A is lysis of 586EBV B cells by TIL586 or clone 5 in the presence of a peptide, B is spontaneous release from 586EBV B cells in presence of the same peptide but in the absence of effector cells, and C is the maximum chromium release. […]

CTL clone 5 = test: GM-CSF release by CTL clone 5 on peptide-pulsed EBV B cells; settings: for GM-CSF release by CTL clone 5, EXPT. 2 (586EBV): 586EBV cells; for GM-CSF release by CTL clone 5, EXPT. 2 (586EBV) / GM-CSF release by CTL clone 5, EXPT. 1 (1510EBV): peptide 0.1 μg/ml for 90 min, 5 × 10^4 CTL clone 5; for CTL clone 5 GM-CSF release: 1510EBV cells incubated with peptide at 0.1 μg/ml for 90 min; for GM-CSF release by CTL clone 5, EXPT. 1 (1510EBV): 1510EBV cells
Method: DNA transfection and GM-CSF assay were done as previously described (Wang, R. F., P. F. Robbins, Y. Kawakami, X. Q. Kang, and S. A. Rosenberg, 1995, J. Exp. Med. 181:799–804). Briefly, […] of DNA carrying a different fragment and 50 ng of the HLA-A31 DNA were mixed with 2 μl of lipofectamine in 100 μl of serum-free DMEM for 15–45 min. The DNA/lipofectamine mixture was then added to the COS-7 (5×10^4) cells and incubated overnight. The following day, cells were washed twice with DMEM medium. TIL586, CTL clone 5 or CTL clone 10 were added at a concentration of 5×10^4 cells/well in AIM-V medium containing 120 IU/ml of IL-2. After 18–24 h incubation, 100 μl of supernatant was collected and GM-CSF was measured in a standard ELISA assay (R+D Systems, Minneapolis, Minn.). For peptides, 586EBV, 1510EBV and T2 cells were incubated with peptides at 37° C. for 90 min, and then washed three times with AIM-V medium containing 120 IU/ml of IL-2. T cells were added and incubated for additional 18–24 h, 100 μl of supernatant was collected for GM-CSF assay. In some experiments, IFN-γ release assays were done using a standard ELISA kit (Endogen, Woburn, Mass.).
These peptides were pulsed onto HLA-A31-positive 1510EBV B cells and tested for their ability to stimulate cytokine release by CTL clone 5. […] CTL clone 10 recognized the same peptide as CTL clone 5 (data not shown). […] The reactivity of CTL clone 5 was undetectable when either the ESO9-54 or the ESO10-127 peptides were used at concentrations below 100 nM to sensitize EBV cells.

TIL1244 = test: T cell recognition of peptide-pulsed 586EBV B cells by TIL1244; settings: peptide pulsed onto 586EBV B cells (FIG. 6)
Excerpt: FIGS. 6A–6H. CTL clones 2 and 14 recognize the NY-ESO-1 gene, but not the ESO10-53 peptide derived from the NY-ESO-1 protein. CTL clones 2, 14 and 5 recognized NY-ESO-1 when cotransfected with HLA-A31 cDNA into COS-7 (FIG. 6A, C, E and G). TIL1244, which recognized TRP-2 But not NY-ESO-1, was used as a specificity control. FIGS. 6B, D, F and H. CTL clones 2, 5, 14, and TIL1244 recognized 586mel. […] TIL1244 recognized the TRP197-205 peptide derived from TRP-2, 586EBV B cells alone or pulsed with the ORF3P peptide from an alternative reading frame of TRP1 were negative controls. 397mel is an HLA-A31-negative, NY-ESO-1-positive tumor line.
as §2, with “TIL586, CTL clone 5 or CTL clone 10 were added at a concentration of 5×10^4 cells/well in AIM-V medium containing 120 IU/ml of IL-2.” left out

AAQERRVPR (listed as Homo sapiens) [ESORF2-9-19]
Recognition by CTL clone 2, in words (CTL clone 2 [1]): recognized

LAAQERRVPR (listed as Homo sapiens) [ESORF2-10-18]
Lysis of peptide-pulsed HLA-A31-negative 1102EBV by CTL clone 2 (CTL clone 2 [2]): failed to lyse
Lysis of peptide-pulsed 1510EBV by CTL clone 2 (CTL clone 2 [2]; peptide titration): capable of lysing
Recognition by CTL clone 2, in words (CTL clone 2 [1]): recognized

SGPGGGAPR (listed as Homo sapiens) [ESO9-54]
GM-CSF release by CTL clone 5, EXPT. 2 (586EBV) (CTL clone 5): <50 (SEQ. ID NO: 14)
CTL clone 5 GM-CSF release (CTL clone 5): 304 (SEQ. ID NO: 14) pg/ml
GM-CSF release by CTL clone 5, EXPT. 1 (1510EBV) (CTL clone 5): <50
Recognition by CTL clone 5 (cytokine release), in words (CTL clone 5; peptide pulsed onto HLA-A31-positive 1510EBV or 586EBV B cells): weakly recognized

SGPGGGAPRG (listed as Homo sapiens)
GM-CSF release by CTL clone 5, EXPT. 2 (586EBV) (CTL clone 5): <50 (SEQ. ID NO: 33)
GM-CSF release by CTL clone 5, EXPT. 1 (1510EBV) (CTL clone 5): <50

TIRLTAADHR (listed as Homo sapiens) [ESO10-34]
CTL clone 5 GM-CSF release (CTL clone 5): <50 (SEQ. ID NO: 16) pg/ml

TPMEAELAR (listed as Homo sapiens) [ESO9-98]
CTL clone 5 GM-CSF release (CTL clone 5): <50 (SEQ. ID NO: 7) pg/ml

TPMEAELARR (listed as Homo sapiens) [ESO10-98]
CTL clone 5 GM-CSF release (CTL clone 5): <50 (SEQ. ID NO: 19) pg/ml

TRP197-205: peptide derived from TRP-2, recognized by TIL1244; specificity control (LLGPGRPYR; UniProt P40126 197-205, looked up, fragment)
Recognition by TIL1244, in words (TIL1244): recognized

TSGPGGGAPR (listed as Homo sapiens)
GM-CSF release by CTL clone 5, EXPT. 2 (586EBV) (CTL clone 5): 346 (SEQ. ID NO: 41)
GM-CSF release by CTL clone 5, EXPT. 1 (1510EBV) (CTL clone 5): 320

VSGPGGGAPR (listed as Homo sapiens)
GM-CSF release by CTL clone 5, EXPT. 2 (586EBV) (CTL clone 5): 666 (SEQ. ID NO: 42)
GM-CSF release by CTL clone 5, EXPT. 1 (1510EBV) (CTL clone 5): 825

— patent US7084239B1, “Cancer peptides of NY-ESO-1/CAG-3” (The United States of America as represented by the …, priority 1997, dated 2006)
